Results reported in BindingDB's records for doi:10.1016/s0960-894x(00)00360-7 (Smithkline Beecham Pharmaceuticals, 2000).

Target: Arginine--tRNA ligase (Staphylococcus aureus)
Test: Inhibitory activity against cognate Staphylococcus aureus Arginyl-tRNA synthetase

- IC50: 4.5 nM
SMILES: N=C(N)NCCC[C@H](N)C(=O)NS(=O)(=O)OC[C@H]1O[C@@H](n2cnc3c(N)ncnc32)[C@H](O)[C@@H]1O [Aminoalkyl adenylate and aminoacyl sulfamate analogue]
